The RepoRT retention time repository

Experiment: HILIC, Waters ACQUITY UPLC BEH Amide, 100 × 2.1 mm, 1.7 µm; A: water + 0.125% formic acid + 10 mM ammonium formate; B: 5% water + 95% acetonitrile + 0.125% formic acid + 10 mM ammonium formate; gradient (min/%B) 0/100 2/100 7.7/70 9.5/40 10.25/30 12.75/100 17/100
Conditions: stereoisomer not certain

LC retention time [min]	Compound
5.08	CC(=O)Nc1ccn(C2OC(CO)C(O)C2O)c(=O)n1 (stereo unspecified) [N-Acetylcytidine]
3	CCC1OC(=O)C(C)C(OC2CC(C)(OC)C(O)C(C)O2)C(C)C(OC2OC(C)CC(N(C)C)C2O)C(C)(OC)CC(C)C(=O)C(C)C(O)C1(C)O (stereo unspecified) [Clarithromycin]
2.28	COc1cc(N)c(Cl)cc1C(=O)NC1CCN(CCCOc2ccc(F)cc2)CC1OC (stereo unspecified) [Cisapride]
4.83	CC(=O)NC(C)C(=O)O (stereo unspecified) [N-Acetylalanine]
7.44	NC(Cc1cccc(O)c1)C(=O)O (stereo unspecified) [3-Hydroxyphenylalanine]
8.47	CCCCCC(O)CC (stereo unspecified) [3-Octanol]
2.55	O=C(O)CCCCCCC(O)CC(=O)O (stereo unspecified) [3-Hydroxysebacic acid]
8.88	Nc1ncnc2c1ncn2C1OC(CO)C(OP(=O)(O)O)C1O (stereo unspecified) [Adenosine-3-monophosphate]
2.15	CN1CCN(CCCN2c3ccccc3Sc3ccc(C(F)(F)F)cc32)CC1 [Trifluoperazine]
4.53	COC(=O)C1=COC(OC2OC(CO)C(O)C(O)C2O)C2C(CO)=CCC12 (stereo unspecified) [Geniposide]
1.73	O=c1ccn(C2CCC(CO)O2)c(=O)[nH]1 (stereo unspecified) [2,3-Dideoxyuridine]
2.76	CCN1CCCC1CNC(=O)c1cc(S(=O)(=O)CC)c(N)cc1OC (stereo unspecified) [Amisulpride]
1.74	CC(O)C(N)=O (stereo unspecified) [Lactamide]
5.84	Cn1c(N)nc2c(ncn2C2OC(CO)C(O)C2O)c1=O (stereo unspecified) [1-Methylguanosine]
1.27	CCCCc1nc(Cl)c(CO)n1Cc1ccc(-c2ccccc2-c2nn[nH]n2)cc1 [Losartan]
0.92	C=C(C)C1CC=C(C)CC1 (stereo unspecified) [Limonene]
1.81	CC(C)c1ccc2oc3nc(N)c(C(=O)O)cc3c(=O)c2c1 [Amlexanox]
9.54	NCCC(=O)NC(Cc1cnc[nH]1)C(=O)O (stereo unspecified) [Carnosine]
1.15	O=C1CCC(=O)CC1 [1,4-Cyclohexanedione]
8.87	CC(=O)NCCCCNCCCN [N8-Acetylspermidine]
1.25	Nc1nc(N)nc(-c2cc(Cl)ccc2Cl)n1 [Irsogladine]
4.93	CN1CC(=O)NC1=N [Creatinine]
1.22	Cc1cc(=O)oc2cc(O)ccc12 [4-Methylumbelliferone]
1.07	COc1c2ccoc2cc2oc(=O)ccc12 [5-Methoxypsoralen]
3.5	Cc1nc2ccccn2c(=O)c1CCN1CCC(C(=O)c2ccc(F)cc2)CC1 [Pirenperone]
0.97	CS(=O)(=O)c1ccc(C2=C(c3ccccc3)C(=O)OC2)cc1 [Rofecoxib]

LC retention time [min]	Compound
6	Cc1cc2nc3c(=O)[nH]c(=O)nc-3n(CC(O)C(O)C(O)CO)c2cc1C (stereo unspecified) [Riboflavin]
9.07	NC(CCC(=O)NC(CS)C(=O)NCC(=O)O)C(=O)O (stereo unspecified) [Glutathione (reduced)]
2.99	O=C(O)C=Cc1ccc(Cn2ccnc2)cc1 [Ozagrel]
5.18	C[N+](C)(C)CCO [Choline [M]+]
5.86	O=C(O)CNC(=O)c1ccc(O)cc1 [4-Hydroxyhippuric acid]
9.1	CN(C)C(CCCN=C(N)N)C(=O)O (stereo unspecified) [N,N-Dimethylarginine]
1.55	Cc1c(O)cccc1C(=O)NC(CSc1ccccc1)C(O)CN1CC2CCCCC2CC1C(=O)NC(C)(C)C (stereo unspecified) [Nelfinavir]
7.85	NCCS(=O)(=O)O [Taurine]
2.96	CCCCCCCCCCCCCCCCCC(=O)OC(CC(=O)O)C[N+](C)(C)C [Stearoyl-L-carnitine]
1.78	O=C(O)Cc1c[nH]c2ccc(O)cc12 [5-Hydroxy-3-indoleacetic acid]
1.3	CC(C)C1CCC(C(=O)NC(Cc2ccccc2)C(=O)O)CC1 (stereo unspecified) [Nateglinide]
1.07	COc1cc(CNC(=O)CCCCCCC(C)C)ccc1O [Dihydrocapsaicin]
1.41	COc1cc(C=CC(=O)O)cc(OC)c1O [Sinapic acid]
1.49	CC(N=C(NC#N)Nc1ccncc1)C(C)(C)C (stereo unspecified) [Pinacidil]
5.09	COC1C(CO)OC(n2ccc(N)nc2=O)C1O (stereo unspecified) [3'-O-Methylcytidine]
3.23	CCCCCCCCCCCCCCCC(=O)OC(CC(=O)[O-])C[N+](C)(C)C (stereo unspecified) [Palmitoylcarnitine cation]
2.25	CC(CN(C)C)CN1c2ccccc2CCc2ccccc21 (stereo unspecified) [Trimipramine]
7.74	C[N+](C)(C)C(Cc1c[nH]c(=S)[nH]1)C(=O)[O-] (stereo unspecified) [Ergothioneine]
1.03	Nc1nc2ccc(OC(F)(F)F)cc2s1 [Riluzole]
1.05	CCC1=C(C)CN(C(=O)NCCc2ccc(S(=O)(=O)NC(=O)NC3CCC(C)CC3)cc2)C1=O (stereo unspecified) [Glimepiride]
1.18	COc1ccc(-c2coc3cc(O)ccc3c2=O)cc1 [Formononetine]
2.79	COc1ccccc1OCC(O)CN1CCN(CC(=O)Nc2c(C)cccc2C)CC1 (stereo unspecified) [Ranolazine]
3.05	CC(C)NCC(O)COc1ccc(CCOCC2CC2)cc1 (stereo unspecified) [Betaxolol]
8.81	NC(=O)CC(N)C(=O)O (stereo unspecified) [Asparagine]
7.35	Cc1nc2ccc(CN(C)c3ccc(C(=O)NC(CCC(=O)O)C(=O)O)s3)cc2c(=O)[nH]1 (stereo unspecified) [Raltitrexed]
1.26	COc1ccc(C=CC(=O)Nc2ccccc2C(=O)O)cc1OC [Tranilast]

LC retention time [min]	Compound
1.15	COc1cc(C=O)ccc1O [Vanillin]
1.24	O=C(O)CCCCCCCCCCCCCCCCC(=O)O [Octadecanedioic acid]
1.99	COc1ccccc1N1CCN(CC(O)COc2cccc3ccccc23)CC1 (stereo unspecified) [Naftopidil]
9.72	O=P(O)(O)OCC1OC(OC2OC(CO)C(O)C(O)C2O)C(O)C(O)C1O (stereo unspecified) [Trehalose-6-phosphate]
4.28	CC1(C)SC2C(N=CN3CCCCCC3)C(=O)N2C1C(=O)O (stereo unspecified) [Mecillinam]
1.24	CCOc1cc(N)c(Cl)cc1C(=O)NCC1CN(Cc2ccc(F)cc2)CCO1 (stereo unspecified) [Mosapride]
0.94	CCOC(=O)C1=C(C)NC(C)=C(C(=O)OCC)C1c1ccccc1C=CC(=O)OC(C)(C)C [Lacidipine]
7.63	CC1(C)CC1C(=O)NC(=CCCCCSCC(N)C(=O)O)C(=O)O (stereo unspecified) [Cilastatin]
1.5	O=C(CCc1ccc(O)cc1)c1c(O)cc(O)cc1O [Phloretin]
3.48	OCC1OC(n2cnc3c(NC4CCCC4O)ncnc32)C(O)C1O (stereo unspecified) [N-2-Hydroxycyclopentyladenosine]
0.97	CC(=O)C1CCC2C3CCC4=CC(=O)CCC4(C)C3CCC12C (stereo unspecified) [Progesterone]
8.56	NC(=O)NC(NC(N)=O)C(=O)O [Allantoic acid]
6.99	CCCCC(N)C(=O)O (stereo unspecified) [Norleucine]
1.1	CC1(C)OC2COC3(COS(N)(=O)=O)OC(C)(C)OC3C2O1 (stereo unspecified) [Topiramate]
1.25	CCCc1nc2c(C)cc(-c3nc4ccccc4n3C)cc2n1Cc1ccc(-c2ccccc2C(=O)O)cc1 [Telmisartan]
4.75	OCc1cc(C(O)CNCCCCCCOCCCCc2ccccc2)ccc1O (stereo unspecified) [Salmeterol]
7.72	NC(N)=NCCCC(=O)O [4-Guanidinobutyric acid]
5.44	CN(C)C(=N)N=C(N)N [Metformin]
8.85	Nc1ncnc2c1ncn2C1OC(CSCCC(N)C(=O)O)C(O)C1O (stereo unspecified) [S-Adenosyl-homocysteine]
2.52	Nc1ccccc1S(=O)(=O)O [Orthanilic acid]
9.6	NCCCC(N)C(=O)O (stereo unspecified) [Ornithine]
1.01	CCCCCCCCCCCCCC(=O)OC(CO)CO [2-Myristoylglycerol]
1.19	Oc1ccc(C2COc3cc(O)ccc3C2)cc1 (stereo unspecified) [Equol]
8.17	O=C(O)C1NCCC1O (stereo unspecified) [3-Hydroxyproline]
1.11	CC(C)C1=CC2=CCC3C(C)(C(=O)O)CCCC3(C)C2CC1 (stereo unspecified) [Abietic acid]
0.96	CC(=O)OC1(C(C)=O)CCC2C3C=C(C)C4=CC(=O)CCC4(C)C3CCC21C (stereo unspecified) [Megestrol Acetate]

Compound	LC retention time [min]
COc1ccc(C(CN(C)C)C2(O)CCCCC2)cc1 (stereo unspecified) [Venlafaxine]	2.44
NC(N)=NOCCC(N)C(=O)O (stereo unspecified) [Canavanine]	9.42
O=C1Nc2ccc(Cl)cc2C(c2ccccc2Cl)=NC1O (stereo unspecified) [Lorazepam]	1.33
COC(=O)C1C(OC(=O)c2ccccc2)CC2CCC1N2C (stereo unspecified) [Cocaine]	2.2
c1cncc(C2CCCN2)c1 (stereo unspecified) [Nornicotine]	5.98
CCC(COC(=O)c1cc(OC)c(OC)c(OC)c1)(c1ccccc1)N(C)C (stereo unspecified) [Trimebutine]	1.47
O=C(O)CCCCCO [6-Hydroxycaproic acid]	1.34
NCCc1ccc(O)cc1 [Tyramine]	5.58
NC(=O)Cc1ccccc1 [2-Phenylacetamide]	1.26
CN1C(=O)CC(=O)N(c2ccccc2)c2cc(Cl)ccc21 [Clobazam]	1.1
CN1C(=O)COc2c(C(=O)NC3CN4CCC3CC4)cc(Cl)cc21 (stereo unspecified) [Azasetron]	4.66
CNC(=O)Oc1ccc2c(c1)C1(C)CCN(C)C1N2C (stereo unspecified) [Physostigmine]	3.17
NCCc1c[nH]c2ccc(O)cc12 [Serotonin]	1.44
